Data from US9274101B2 (BIOLOG, Inc., priority 2001, dated 2016).
Like-named read-outs stand apart in the source and are kept apart here. Where a SMILES comes first, the peptide text is derived from it. [ ]: non-standard residue; d: D form.

What was measured:
E. coli MG1655 [1] = assay type: cell-based, Escherichia coli
HL-60 cells = test: HL-60 responses in PM1a, PM6, PM7 and PM8 plates; assay type: cell-based, human
Experimental: In this Example, methods for testing unattached cells for their ability to use various carbon sources including di and tri-peptides are described.
After washing, HL-60 cells were resuspended in DME-R. An aliquot of the cell suspension was counted by trypan blue exclusion and the cell density was adjusted to 1×10^6/mL. Fifty μL of DME-R were added to each well of the appropriate number of half area, 96-well plates. The cells were plated at a volume of 50 μL/well, giving a final cell density of 5×10^4/well. PM1a, MP6, PM7, and PM8 MICROPLATE testing plates were inoculated (these MICROPLATE testing plates are available from Biolog under license). For each plate containing chemicals and cells, a second, control plate containing only chemicals was prepared. All wells contained a total volume of 100 μL. Plates were incubated at 5% CO2, 90-100% humidity, and 37° C. for 1 hour prior to addition of the MTS/MPMS colorometric reagent (5 μL/well). The color formed in each well after an additional 24 hour incubation period, was measured on a plate reader at 490 nm with a reference wavelength of 650 nm. OD values from the control plate were subtracted from the OD values obtained with cells prior to normalizing the data to % negative control (cells without added energy source).

[2] = tested on: Salmonella typhimurium auxotrophs hisF645 and pyrCΔ73; assay type: cell-based
E. coli MG1655 [3] = assay type: cell-based, Escherichia coli; remark: listed apart in the source
ten strains of E. coli = assay type: cell-based, Escherichia coli; note: key: +: indicates that the organism tested was capable of utilizing the carbon source listed; −: indicates that the organism tested was not capable of utilizing the carbon source listed; indicates weak positive reactions
HepG2 cells = HepG2 cells cultured on CYTODEX 3 microcarriers, energy sources; assay type: cell-based, human; conditions: Homo sapiens, HepG2, 68 h, read-out: Responses of HepG2 Cells Cultured on Microcarriers After 68 hours in Culture and a 4 hour Color Development Period
Experimental: In this Example, methods for testing adherent cells cultured in suspension, for their ability to use multiple carbon sources are described. HepG2 cells were cultured as described in Example 30.
HepG2 cells were harvested by trypsinization for 3 minutes in 0.25% trypsin-1 mM EDTA and resuspended in an equal volume of culture medium. A viable cell count was obtained by trypan blue exclusion and the appropriate volume of the cell suspension to have 2.7×10^6 cells/0.1 gm CYTODEX 3 (Sigma C3275) microcarrier beads was determined. Microcarrier beads had been previously prepared by 1) rehydration in calcium-magnesium free (CMF) DPBS for 3 hours, 2) autoclaving for 15 minutes, and 3) washing twice in MEM without serum. The cell suspension was added to the beads in a 50 mL tube, and the volume adjusted to 5 mL. Cells were allowed to attach for 1 hour in an atmosphere of 5% CO2, 90-100% humidity, and 37° C., with resuspension every 15 minutes. The microcarriers were transferred to a 100×15 mm Petri dish in a total volume of 20 mL. Cultures were maintained as stationary cultures until used for assay.
The thixotropic suspending agent, methylcellulose (1500 cps, Sigma M0555), was included in the medium to keep the microcarriers suspended so that they could be accurately pipetted. The methylcellulose was prepared by autoclaving in 20 mL tissue culture water for 30 minutes, then mixing by shaking for 1 hour. The initial concentration of methylcellulose was […]. The methylcellulose was then diluted 1:1 in 2× DME with or without glucose, then supplemented with 10% HI FBS; this yields a methylcellulose concentration of 1.36%. Beads were transferred to a 50 mL tube, allowed to settle and resuspended in DPBS. The washed beads were then resuspended in DME with 10% HI FBS and penicillin-streptomycin but without glucose, L-glutamine, sodium pyruvate, or phenol red. An equal volume of 1.36% methylcellulose was added and mixed by pipetting.
For the assay, 70 μL of DME with 10% HI FBS and penicillin-streptomycin but without glucose, L-glutamine, sodium pyruvate, or phenol red were added to each well, followed by 30 μL of the appropriate dilution of each test energy source. Stocks of 133 mM of each test chemical were prepared in tissue culture grade water, sterile filtered, and dilutions were prepared in a master plate so that, upon dilution into a regular 96-well MICROPLATE a total well volume of 200 μL, the final concentrations would be 0.033 to 20 mM. Negative control wells received 30 μL of tissue culture grade water. One hundred μL of beads were pipetted into each well. For each plate containing energy sources and cells, a second, control plate containing only energy sources was prepared. Plates were incubated at 5% CO2, 90-100% humidity, and 37° C. for 68 hours prior to addition of the MTS/MPMS colorometric reagent (10 μL/well). The color formed in each well 4-8 hours after addition of the colorimetric reagent, was measured with a plate reader at 490 nm with a reference wavelength of 650 nm. OD values from the control plate were subtracted from the OD values obtained with cells prior to normalizing the data to % negative control (cells without added energy source).

[4] = PM6, PM7, PM8, positive = greater than 130% of the negative control

Compound	response of HL-60 cells to peptides (HL-60 cells; [4])	growth stimulation (well color) [2]	other results
N[C@@H](CS)C(=O)NCC(=O)O [cys-gly]	positive response		suitability as sulfur source (growth, purple color) (E. coli MG1655 [1]): positive
Nc1ncnc2c1ncn2[C@@H]1O[C@H](COP(=O)(O)O)[C@@H](O)[C@H]1O [adenosine 5′-monophosphate]		turned weakly purple	suitability as phosphorus source (growth, purple color) (E. coli MG1655 [1]): not suitable
O=c1cc[nH]c(=O)[nH]1 [uracil]		turned purple	suitability as nitrogen source (growth, purple color) (E. coli MG1655 [3]): not suitable
Nc1nc2nc[nH]c2c(=O)[nH]1 [guanine]		turned weakly purple	
C[C@@H](O)[C@H](N)C(=O)N[C@@H](CO)C(=O)O [thr-ser] (H-Thr-Ser-OH)	positive response		
O=c1ccn([C@H]2C[C@H](O)[C@@H](CO)O2)c(=O)[nH]1 [2-deoxyuridine]		turned purple	
Nc1nc2c(ncn2[C@@H]2O[C@H](COP(=O)(O)O)[C@@H](O)[C@H]2O)c(=O)[nH]1 [guanosine 5′-monophosphate]		turned weakly purple	suitability as phosphorus source (growth, purple color) (E. coli MG1655 [1]): positive
N[C@@H](Cc1ccccc1)C(=O)N[C@@H](CC(=O)O)C(=O)O [phe-asp] (H-Phe-Asp-OH)	positive response		
Nc1ccn([C@@H]2O[C@H](CO)[C@@H](O)[C@H]2O)c(=O)n1 [cytidine]		turned purple	
CC(C)C[C@H](NC(=O)CNC(=O)CN)C(=O)O			response of HL-60 cells to peptides (HL-60 cells): positive response
CSCC[C@H](NC(=O)[C@@H](N)[C@@H](C)O)C(=O)O [thr-met] (H-Thr-Met-OH)	positive response		
CC(C)[C@H](NC(=O)[C@@H](N)Cc1ccc(O)cc1)C(=O)O [tyr-val] (H-Tyr-Val-OH)	positive response		
Nc1cc[nH]c(=O)n1 [cytosine]		turned purple	suitability as nitrogen source (growth, purple color) (E. coli MG1655 [3]): not suitable
NCC(=O)N[C@H](CO)C(=O)O [gly-D-ser] (H-Gly-[dS]-OH)	positive response		
O=C(O)[C@H](Cc1c[nH]c2ccccc12)NC(=O)[C@@H]1CCCN1 [pro-trp] (H-Pro-Trp-OH)	positive response		
CC(C)CC(NC(=O)C(N)CO)C(=O)O (stereo not drawn) [ser-leu] (H-Ser-Leu-OH; configuration not given here)	positive response		

Compound	response of HL-60 cells to peptides (HL-60 cells; [4])	growth stimulation (well color) [2]	other results
C[C@H](NC(=O)[C@@H](N)Cc1ccc(O)cc1)C(=O)O [tyr-ala]	positive response		
C[C@@H](O)[C@H](N)C(=O)N1CCC[C@H]1C(=O)O [thr-pro] (H-Thr-Pro-OH)	positive response		
C[C@H](NC(=O)[C@@H]1CCCN1)C(=O)O [pro-ala] (H-Pro-Ala-OH)	positive response		
Nc1ncnc2c1ncn2[C@H]1C[C@H](O)[C@@H](CO)O1 [2′-deoxy-adenosine]		turned weakly purple	carbon source utilization (ten strains of E. coli): +
NC(=O)CC[C@H](N)C(=O)N[C@@H](CCC(=O)O)C(=O)O [gln-glu] (H-Gln-Glu-OH)	positive response		
C[C@H](N)C(=O)N[C@@H](CCC(N)=O)C(=O)O [ala-gln] (H-Ala-Gln-OH)	positive response		suitability as nitrogen source (growth, purple color) (E. coli MG1655 [3]): positive
Nc1ccn([C@H]2C[C@H](O)[C@@H](CO)O2)c(=O)n1 [2-deoxycytidine]		turned purple	
Nc1nc2c(ncn2[C@H]2C[C@H](O)[C@@H](CO)O2)c(=O)[nH]1 [2′deoxyguanosine]		turned weakly purple	
N[C@@H](Cc1cnc[nH]1)C(=O)N[C@@H](CC(=O)O)C(=O)O [his-asp] (H-His-Asp-OH)	positive response		
CC(C)[C@H](NC(=O)CN)C(=O)O [gly-val] (H-Gly-Val-OH)	positive response		
CSCC[C@H](NC(=O)[C@@H](N)CO)C(=O)O [ser-met] (H-Ser-Met-OH)	positive response		
O=c1ccn([C@@H]2O[C@H](CO)[C@@H](O)[C@H]2O)c(=O)[nH]1 [Uridine]		turned purple	activity at 30 µM (HepG2 cells; Conc. 0.03 mM): 102%; activity at 100 µM (HepG2 cells; Conc. 0.10 mM): 109%; activity at 330 µM (HepG2 cells; Conc. 0.33 mM): 99%; activity at 1000 µM (HepG2 cells; Conc. 1.00 mM): 109%; activity at 3300 µM (HepG2 cells; Conc. 3.3 mM): 106%; activity at 10000 µM (HepG2 cells; Conc. 10 mM): 94.8%; activity at 15000 µM (HepG2 cells; Conc. 15 mM): 74.1%; activity at 20000 µM (HepG2 cells; Conc. 20 mM): 31.9%; carbon source utilization (ten strains of E. coli): +; suitability as nitrogen source (growth, purple color) (E. coli MG1655 [3]): not suitable
CC[C@H](C)[C@H](NC(=O)CNC(=O)CN)C(=O)O [gly-gly-ile] (H-Gly-Gly-Ile-OH)	positive response		
CC(C)[C@H](N)C(=O)N[C@@H](Cc1ccc(O)cc1)C(=O)N[C@H](C(=O)O)C(C)C [val-tyr-val] (H-Val-Tyr-Val-OH)	positive response		
CC[C@H](C)[C@H](N)C(=O)N[C@@H](CCC(N)=O)C(=O)O [ile-gln] (H-Ile-Gln-OH)	positive response		
